Legend:
Hu apoAI transgenic mice = experiment: Evaluation of triglyceride and cholesterol levels in Hu apoAI transgenic mice; assay type: in vivo; conditions: for change in vivo at 30 mg/kg / inhibition in vivo at 30 mg/kg: Mus musculus, 168 h, 30 mg/kg daily oral gavage for 7 days; for change in vivo at 30 mg/kg: pooled sera, read-out: % HDLc Increase (serum, FPLC area under the curve, over vehicle); for inhibition in vivo at 30 mg/kg: serum 3 hours after dosing on day 7, read-out: % Triglyceride Decrease (serum, over mice receiving vehicle)
Procedure: After an acclimation period of 2 weeks, animals were individually identified by ear notches, weighed, and assigned to groups based on body weight. Beginning the following morning, mice were dosed daily by oral gavage for 7 days using a 20 gauge, 11⁄2 curved disposable feeding needle (Popper & Sons). […] Prior to termination on day 7, mice were weighed and dosed. Three hours after dosing, animals were anesthetized by inhalation of isoflurane (2-4%; Abbott Laboratories, Chicago, Ill.) and blood obtained via cardiac puncture (0.7-1.0 ml). Whole blood was transferred to serum separator tubes (Vacutainer SST), chilled on ice, and permitted to clot. Serum was obtained after centrifugation at 4° C. and frozen until analysis for triglycerides, total cholesterol, compound levels, and serum lipoprotein profile by fast protein liquid chromatography (FPLC) coupled to an inline detection system. After sacrifice by cervical dislocation, the liver, heart and epididymal fat pads were excised and weighed. […] The percentage decrease in triglyceride serum levels in mice receiving a compound of the invention over mice receiving vehicle are reported in Table 2. […] The absorbance of the dye produced is linearly related to the analyte in the sample. The assays were further modified in our laboratory for use in a 96 well format. […] An additional aliquot of sample, pipetted to a third well and diluted in 200 μl water, provided a blank for each specimen. […] All samples from an experiment were assayed at the same time to minimize inter-assay variability. Serum lipoproteins were separated and cholesterol quantitated with an in-line detection system. […] The change in voltage corresponding to change in cholesterol concentration was plotted vs time and the area under the curve corresponding to the elution of VLDL, LDL and HDL was calculated using Perkin Elmer Turbochrome software.

db/db mice = experiment: Evaluation of glucose levels in db/db mice; assay type: in vivo; conditions: Mus musculus, 168 h; 30 mg/kg daily oral gavage for 7 days; 100% = glucose not different from lean values; read-out: Glucose Normalisation
Procedure: After an acclimation period of 2 weeks, animals were individually identified by ear notches, weighed, and bled via the tail vein for determination of initial glucose levels. Blood was collected (100 μl) from unfasted animals by wrapping each mouse in a towel, cutting the tip of the tail with a scalpel, and milking blood from the tail into a heparinized capillary tube (Fisher) balanced on the edge of the bench. Sample was discharged into a heparinized microtainer with gel separator (VWR) and retained on ice. Plasma was obtained after centrifugation at 4° C. and glucose measured immediately. Remaining plasma was frozen until the completion of the experiment, when glucose and triglycerides were assayed in all samples. Animals were grouped based on initial glucose levels and body weights. Beginning the following morning, mice were dosed daily by oral gavage for 7 days using a 20 gauge, 1½″ curved disposable feeding needle. […] On day 7, mice were weighed and bled (tail vein) 3 hours after dosing. Twenty-four hours after the 7th dose (i.e., day 8), animals were bled again (tail vein). Samples obtained from conscious animals on days 0, 7 and 8 were assayed for glucose. After the 24 hour bleed, animals were weighed and dosed for the final time. Three hours after dosing on day 8, animals were anesthetized by inhalation of isoflurane and blood obtained via cardiac puncture (0.5-0.7 ml). Whole blood was transferred to serum separator tubes, chilled on ice and permitted to clot. Serum was obtained after centrifugation at 4° C. and frozen until analysis for compound levels. After sacrifice by cervical dislocation, the liver, heart and epididymal fat pads were excised and weighed.
The absorbance of the dye produced is linearly related to the analyte in the sample. The assays were further modified in our laboratory for use in a 96 well format. […] An additional aliquot of sample, pipetted to a third well and diluted in 200 μl water, provided a blank for each specimen. […] Sample absorbances were compared to a standard curve (100-800, 10-500, and 100-400 mg/dl for glucose, triglycerides and total cholesterol, respectively). […] All samples from an experiment were assayed at the same time to minimize inter-assay variability.

huPPARα = experiment: Cotransfection assay in CV-1 cells, huPPARα (GAL4 chimeric system); assay type: cell-based, human; conditions: luciferase reporter, relative to PPARα agonist reference molecule
Procedure: DNA-dependent binding (ABCD binding) was carried out using SPA technology with PPAR receptors. Tritium-labeled PPARγ and PPARα agonists were used as radioligands for generating displacement curves and IC50 values with compounds of the invention. Cotransfection assays were carried out in CV-1 cells. The reporter plasmid contained an acylCoA oxidase (AOX) PPRE and TK promoter upstream of the luciferase reporter cDNA. Appropriate PPARs and RXRα were constitutively expressed using plasmids containing the CMV promoter. For PPARα and PPARβ, interference by endogenous PPARγ in CV-1 cells was an issue. In order to eliminate such interference, a GAL4 chimeric system was used in which the DNA binding domain of the transfected PPAR was replaced by that of GAL4, and the GAL4 response element was utilized in place of the AOX PPRE. Cotransfection efficacy was determined relative to PPARα agonist and […] reference molecules. Efficacies were determined by computer fit to a concentration-response curve, or in some cases at a single high concentration of agonist (10 μM). For binding or cotransfection studies with receptors other than PPARs, similar assays were carried out using appropriate ligands, receptors, reporter constructs, etc., for that particular receptor.
These studies were carried out to evaluate the ability of compounds of the invention to bind to and/or activate various nuclear transcription factors, particularly huPPARα (“hu” indicates “human”) and huPPARγ. These studies provide in vitro data concerning efficacy and selectivity of compounds of the invention. Furthermore, binding and cotransfection data for compounds of the invention were compared with corresponding data for marketed compounds that act on either huPPARα or huPPARγ.

[1] = fenofibrate 100 mg/kg oral, 7 days, vs vehicle

Row | SMILES | change in vivo at 30 mg/kg (Hu apoAI transgenic mice) [%] | inhibition in vivo at 30 mg/kg (Hu apoAI transgenic mice) [%] | inhibition in vivo at 30 mg/kg (db/db mice) [%] | also measured
1 | Cc1oc(-c2ccc(-c3ccccc3)cc2)nc1CCOc1ccc(OC(C)(C)C(=O)O)c2c1CCCC2 [Example 50, 2-{4-[2-(2-Biphenyl-4-yl-5-methyloxazol-4-yl)-ethoxy]-5,6,7,8-tetrahydronaphthalen-1-yloxy}-2-methyl propionic acid] | 95 | 53.9 | 42 | –
2 | Cc1cc(OCCc2nc(-c3ccc(-c4ccccc4)cc3)oc2C)ccc1OC(C)(C)C(=O)O [Example 24, 2-{4-[2-(2-Biphenyl-4-yl-5-methyloxazol-4-yl)-ethoxy]-2-methylphenoxy}-2-methylpropionic acid] | 72 | 62.3 | 55 | –
3 | Cc1oc(-c2cccc(-c3ccccc3)c2)nc1CCOc1ccc(OC(C)(C)C(=O)O)c2c1CCCC2 [Example 51, 2-{4-[2-(2-Biphenyl-3-yl-5-methyloxazol-4-yl)-ethoxy]-5,6,7,8-tetrahydronaphthalen-1-yloxy}-2-methyl propionic acid] | 53 | 41.6 | 31 | –
4 | CCCc1cc(OCCc2nc(-c3ccc(-c4ccccc4)cc3)oc2C)ccc1OCC(=O)O [Example 62, {4-[2-(2-Biphenyl-4-yl-5-methyl-oxazol-4-yl)-ethoxy]-2-propyl-phenoxy}-acetic acid] | 56 | 45.5 | 36 | –
5 | Cc1oc(-c2cccc(-c3ccccc3)c2)nc1CCOc1ccc(OC(C)(C)C(=O)O)c2ccccc12 [Example 49, 2-{4-[2-(2-Biphenyl-3-yl-5-methyloxazol-4-yl)ethoxy]naphthalen-1-yloxy}-2-methyl propionic acid] | 34 | 48.7 | 39 | –
6 | Cc1oc(-c2cccc(-c3ccccc3)c2)nc1CCOc1ccc(OC(C)(C)C(=O)O)cc1 [Example 3, 2-{4-[2-(2-Biphenyl-3-yl-5-methyloxazol-4-yl)ethoxy]phenoxy}-2-methylpropionic acid] | 69 | 51.2 | 93 | –
7 | CC(C)OC(=O)C(C)(C)Oc1ccc(C(=O)c2ccc(Cl)cc2)cc1 [fenofibrate, reference compound] | – | – | – | mean elevation of total serum cholesterol (Hu apoAI transgenic mice; [1]): 41%; mean percent increase of HDLc (Hu apoAI transgenic mice; [1]): 48%; mean reduction of triglycerides (Hu apoAI transgenic mice; [1]): 37%; HDLc peak area (FPLC) (Hu apoAI transgenic mice; fenofibrate 100 mg/kg oral, 7 days, vehicle 47-62 v-sec): 68-96 v-sec; average triglycerides values (Hu apoAI transgenic mice; fenofibrate 100 mg/kg oral, 7 days, vehicle 60-80 mg/dl): 33 to 58 mg/dL; average total serum cholesterol values (Hu apoAI transgenic mice; fenofibrate 100 mg/kg oral, 7 days, vehicle 148-180 mg/dl): 190 to 280 mg/dL
8 | Cc1oc(-c2ccc(-c3ccccc3)cc2)nc1CCOc1ccc(OC(C)(C)C(=O)O)c2ccccc12 [Example 48, 2-{4-[2-(2-Biphenyl-4-yl-5-methyloxazol-4-yl)ethoxy]naphthalen-1-yloxy}-2-methyl propionic acid] | 89 | 43.7 | 31 | –
9 | Cc1oc(-c2ccc(-c3ccccc3)cc2)nc1CCOc1ccc(OC(C)(C)C(=O)O)cc1 [Example 1, 2-{4-[2-(2-Biphenyl-4-yl-5-methyloxazol-4-yl)ethoxy]phenoxy}-2-methylpropionic acid] | 160 | 62.2 | 90 | –
10 | Cc1oc(-c2ccc(-c3cccc4ccccc34)cc2)nc1CCOc1ccc(OC(C)(C)C(=O)O)cc1 [Example 8, 2-Methyl-2-(4-{2-[5-methyl-2-(4-naphthalen-1-ylphenyl)oxazol-4-yl]ethoxy}phenoxy)propionic acid] | 41 | 31.8 | 19 | –
11 | Cc1c(C)c2c(c(C)c1O)CCC(C)(COc1ccc(CC3SC(=O)NC3=O)cc1)O2 (stereo not shown) [Troglitazone, reference compound] | – | – | – | huPPARα CTF Efficacy (huPPARα): 0%
12 | CCCCc1cc(OC(C)(C)C(=O)O)ccc1OCCc1nc(-c2ccc(-c3ccccc3)cc2)oc1C [Example 31, 2-{4-[2-(2-Biphenyl-4-yl-5-methyloxazol-4-yl)ethoxy]-3-butylphenoxy}-2-methylpropionic acid] | 217 | 66.7 | 89 | –
13 | Cc1oc(-c2ccc(-c3ccccc3)cc2)nc1CCOc1ccc(OC(C)(C)C(=O)O)c(-c2ccccc2)c1 [Example 38, 2-{5-[2-(2-Biphenyl-4-yl-5-methyloxazol-4-yl)-ethoxy]-biphenyl-2-yloxy}-2-methyl-propionic acid] | 34 | 53.3 | 59 | –
14 | Cc1oc(-c2cccc(-c3ccccc3)c2)nc1CCOc1cccc(OC(C)(C)C(=O)O)c1 [Example 22, 2-{3-[2-(2-Biphenyl-3-yl-5-methyloxazol-4-yl)ethoxy]phenoxy}-2-methylpropionic acid] | 191 | 73.6 | 102 | –
15 | Cc1oc(-c2ccc(-c3ccccc3C(F)(F)F)cc2)nc1CCOc1ccc(OC(C)(C)C(=O)O)cc1 [Example 12, 2-Methyl-2-(4-{2-[5-methyl-2-(2′-trifluoromethyl-biphenyl-4-yl)-oxazol-4-yl]-ethoxy}-phenoxy)propionic acid] | 29 | 37.6 | 44 | –
16 | CCCc1cc(OCCc2nc(-c3ccc(-c4ccccc4)cc3)oc2C)ccc1OC(C)(C)C(=O)O [Example 60, 2-{4-[2-(2-Biphenyl-4-yl-5-methyloxazol-4-yl)-ethyloxy]-2-propylphenoxy}-2-methyl-propionic acid] | 38 | 40.8 | 68 | –

— patent publication US6417212B1, “Modulators of peroxisome proliferator activated receptors” (Eli Lilly & Company, priority 1999, dated 2002)
